Results on one molecule are retold here after US20250134905A1, “USE OF SMALL-MOLECULE COMPOUND HOMOHARRINGTONINE IN MANUFACTURING DRUG FOR TREATING ACQUIRED IMMUNE DEFICIENCY SYNDROME” (Hangzhou City University, priority 2022, published 2025).

The test concerns HIV-1. The experiment in a line: microbe, parasite or virus in culture. The note with it: Human immunodeficiency virus 1, HEK293, read-out: EC50 in inhibiting the production of HIV-1.

Take `COC(=O)C[C@](O)(CCCC(C)(C)O)C(=O)O[C@@H]1C(OC)=C[C@]23CCCN2CCc2cc4c(cc2[C@H]13)OCO4` [homoharringtonine]: the EC50 came to 8.57 nM.

As usually defined, the EC50 is the midpoint of the concentration-response curve.
